Results as given in patent US10993947B2, “Treatment of skin lesions” (PIQUR THERAPEUTICS AG, priority 2016, dated 2021).
Where two headings read alike, the source gives them in different places.

What was measured:
[1] = system: pS6 S235/S236 in A2058 cells; test: In-cell Western blot, pS6 S235/S236; format: cell-based; details: Homo sapiens, 1 hour treatment
Method: (§1) Cells are fixed with 4% paraformaldehyde for 30 minutes at room temperature, washed 2 times with 1% BSA in PBS, permeabilized with 0.1% Triton X-100 in PBS/1% BSA for 30 minutes at room temperature and blocked with 5% goat serum in PBS/1% BSA/0.1% Triton X-100 for 30 minutes at room temperature. […] Cells are washed 3 times 5 minutes with PBS/1% BSA/0.1% triton and plate scanned with the Odyssey Infrared Scanning system using both 700 and 800 nm channels. […] To correct for background staining in the data analysis wells are treated only with secondary antibodies.
(§2) For data analysis the mean background signal from channel 700 nm and 800 nm are subtracted from each signal in channel 700 nm and 800 nm, respectively.
(§3) IC50 values of each compound are determined by plotting the normalized pPBK S473 and pS6 S235/S236 signals, respectively, versus the compound concentrations (in logarithmic scale) and then by fitting a sigmoidal dose-response curve with variable slope to the data using GraphPad™ Prism.

[2] = molecular target: T1, N-terminally GST-tagged mTOR (Homo sapiens, UniProt P42345); test: In vitro mTOR binding assay (LanthaScreen TR-FRET)
T1 construct: truncated version: amino acids 1360-2549; purchased Life Technologies PR8683B
T1 sequence (P42345 1360-2549): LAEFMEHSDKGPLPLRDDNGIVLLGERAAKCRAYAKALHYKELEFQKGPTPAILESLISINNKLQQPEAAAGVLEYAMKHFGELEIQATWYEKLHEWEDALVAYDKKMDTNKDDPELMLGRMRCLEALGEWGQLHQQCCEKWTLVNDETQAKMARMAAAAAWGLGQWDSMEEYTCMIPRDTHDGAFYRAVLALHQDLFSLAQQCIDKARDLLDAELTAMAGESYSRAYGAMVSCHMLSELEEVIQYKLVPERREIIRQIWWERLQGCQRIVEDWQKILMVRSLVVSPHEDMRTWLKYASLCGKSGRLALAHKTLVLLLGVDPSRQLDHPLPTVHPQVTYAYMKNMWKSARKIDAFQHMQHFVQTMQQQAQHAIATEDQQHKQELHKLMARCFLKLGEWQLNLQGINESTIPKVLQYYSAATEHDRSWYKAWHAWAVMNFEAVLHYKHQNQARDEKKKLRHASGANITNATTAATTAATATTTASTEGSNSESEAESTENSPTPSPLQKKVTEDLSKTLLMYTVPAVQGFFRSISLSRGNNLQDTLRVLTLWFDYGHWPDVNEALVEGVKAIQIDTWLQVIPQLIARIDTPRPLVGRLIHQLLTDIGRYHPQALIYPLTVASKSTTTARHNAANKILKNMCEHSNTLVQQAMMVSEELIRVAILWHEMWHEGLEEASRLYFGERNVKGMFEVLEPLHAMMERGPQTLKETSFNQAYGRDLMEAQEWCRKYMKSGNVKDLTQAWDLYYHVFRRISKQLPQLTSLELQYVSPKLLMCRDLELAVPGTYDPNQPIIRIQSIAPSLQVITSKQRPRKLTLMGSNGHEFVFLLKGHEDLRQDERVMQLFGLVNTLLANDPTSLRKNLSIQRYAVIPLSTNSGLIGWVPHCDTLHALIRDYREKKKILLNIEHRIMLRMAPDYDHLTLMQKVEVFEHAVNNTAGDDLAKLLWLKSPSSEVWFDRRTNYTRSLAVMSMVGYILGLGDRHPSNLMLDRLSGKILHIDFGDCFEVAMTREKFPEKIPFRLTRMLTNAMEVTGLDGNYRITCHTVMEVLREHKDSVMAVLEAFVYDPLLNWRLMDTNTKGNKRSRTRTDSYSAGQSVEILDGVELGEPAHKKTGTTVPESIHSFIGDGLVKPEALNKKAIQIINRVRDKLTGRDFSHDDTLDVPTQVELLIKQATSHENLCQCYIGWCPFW
Method: A 10-point 4-fold serial dilution (highest concentration at 10 μmol/L and lowest concentration at 40 μmol/L) of each compound was tested for mTOR binding in duplicate in a 384-well plate. […] After 30 min incubation at RT, time-resolved FRET was measured with a Synergy 4 multi-mode microplate reader (Biotek Instruments) using the following settings: 100 microsecs delay before data collection, 200 microsecs time for data collection, 10 measurements per data point.
IC50 values of each compound were determined by plotting the emission ratio versus the compound concentrations (in logarithmic scale) and then by fitting a sigmoidal dose-response curve with variable slope to the data using GraphPad™ Prism.

pPKB S473 in A2058 cells = test: In-cell Western blot, pPKB S473; format: cell-based; details: Homo sapiens, 1 hour treatment
Method: as §1, §2, §3

[3] = LanthaScreen kinase binding, Tracer 314, read-out: mTOR IC50 (binding)

SMILES | IC50 ([1]; A2058, 1 h) | IC50 (pPKB S473 in A2058 cells; A2058, 1 h) | further results
C[C@H]1COCCN1c1cc(-c2cnc(N)cc2C(F)(F)F)nc(N2CCOC[C@@H]2C)n1 [reference compound] | 553 nM | 452 nM | IC50 [2, 3]: 152 nM
C[C@H]1COCCN1c1nc(-c2cnc(N)nc2C(F)(F)F)cc(N2CCOCC2)n1 [reference compound] | 535 nM | 191 nM | IC50 [2, 3]: 186 nM
C[C@@H]1COCCN1c1nc(-c2cnc(N)cc2C(F)F)nc(N2C[C@@H]3C[C@H]2CO3)n1 [Compound 53, 4-(difluoromethyl)-5-[4-[(3R)-3-methylmorpholin-4-yl]-6-[(1S,4S)-2-oxa-5-azabicyclo[2.2.1]heptan-5-yl]-1,3,5-triazin-2-yl]pyridin-2-amine] | 612 nM | 1320 nM | –
COC[C@@H]1COCCN1c1nc(-c2cnc(N)cc2C(F)F)nc(N2CCOCC2(C)C)n1 [Compound 67, 4-(difluoromethyl)-5-[4-(3,3-dimethylmorpholin-4-yl)-6-[(3R)-3-(methoxymethyl)morpholin-4-yl]-1,3,5-triazin-2-yl]pyridin-2-amine] | 395 nM | 787 nM | –
C[C@H]1COCCN1c1nc(-c2cnc(N)nc2C(F)F)nc(N2C3CCC2COC3)n1 [Compound 11, 5-(4-(3-oxa-8-azabicyclo[3.2.1]octan-8-yl)-6-((S)-3-methylmorpholino)-1,3,5-triazin-2-yl)-4-(difluoromethyl)pyrimidin-2-amine] | 96 nM | 61 nM | –
COCCN1CCN(c2nc(-c3cnc(N)cc3C(F)F)nc(N3CCOCC3(C)C)n2)CC1 [Compound 71, 4-(difluoromethyl)-5-[4-(3,3-dimethylmorpholin-4-yl)-6-[4-(2-methoxyethyl)piperazin-1-yl]-1,3,5-triazin-2-yl]pyridin-2-amine] | 3140 nM | 2340 nM | –
Nc1ncc(-c2nc(N3CCOCC3)nc(N3CCOCC3)n2)c(C(F)F)n1 [Compound 2] | – | – | IC50 [2, 3]: 59 nM
Nc1ncc(-c2cc(N3CCOCC3)nc(N3CCOCC3)n2)c(C(F)F)n1 [Compound 17, 4′-(difluoromethyl)-2,6-dimorpholino-[4,5′-bipyrimidin]-2′-amine] | – | – | IC50 [1]: 149 nM; IC50 [2, 3]: 155 nM
Nc1cc(C(F)(F)F)c(-c2cc(N3CCOCC3)nc(N3CCOCC3)n2)cn1 [reference compound] | 277 nM | 263 nM | –
Nc1ncc(-c2nc(N3CCOCC3)nc(N3C4CCC3COC4)n2)c(C(F)F)n1 [Compound 5, 5-(4-(3-oxa-8-azabicyclo[3.2.1]octan-8-yl)-6-morpholino-1,3,5-triazin-2-yl)-4-(difluoromethyl)pyrimidin-2-amine] | 135 nM | 85 nM | –
C[C@@H]1COCCN1c1nc(-c2cnc(N)cc2C(F)F)nc(N2CC3CC(C2)O3)n1 [Compound 51, 4-(difluoromethyl)-5-[4-[(3R)-3-methylmorpholin-4-yl]-6-(6-oxa-3-azabicyclo[3.1.1]heptan-3-yl)-1,3,5-triazin-2-yl]pyridin-2-amine] | 352 nM | 875 nM | –
Nc1cc(C(F)F)c(-c2nc(N3CCOCC3)nc(N3C4CCCC3COC4)n2)cn1 [Compound 80, 4-(difluoromethyl)-5-[4-morpholino-6-(3-oxa-9-azabicyclo[3.3.1]nonan-9-yl)-1,3,5-triazin-2-yl]pyridin-2-amine] | 117 nM | 94 nM | –
CC(C)[C@@H]1COCCN1c1nc(-c2cnc(N)cc2C(F)F)nc(N2CCOC[C@H]2C(C)C)n1 [Compound 56, 5-[4,6-bis[(3R)-3-isopropylmorpholin-4-yl]-1,3,5-triazin-2-yl]-4-(difluoromethyl)pyridin-2-amine] | > 10000 nM | > 10000 nM | –
CC[C@@H]1COCCN1c1nc(-c2cnc(N)cc2C(F)F)nc(N2CCOC[C@H]2C)n1 [Compound 86, 4-(difluoromethyl)-5-[4-[(3R)-3-ethylmorpholin-4-yl]-6-[(3R)-3-methylmorpholin-4-yl]-1,3,5-triazin-2-yl]pyridin-2-amine] | 236 nM | 231 nM | –
CC[C@H]1COCCN1c1nc(-c2cnc(N)cc2C(F)F)nc(N2CCOC[C@H]2C)n1 [Compound 85, 4-(difluoromethyl)-5-[4-[(3S)-3-ethylmorpholin-4-yl]-6-[(3R)-3-methylmorpholin-4-yl]-1,3,5-triazin-2-yl]pyridin-2-amine] | 241 nM | 249 nM | –
Nc1cc(C(F)F)c(-c2nc(N3C4COCC3COC4)nc(N3C4COCC3COC4)n2)cn1 [Compound 37, 5-[4,6-bis(3,7-dioxa-9-azabicyclo[3.3.1]nonan-9-yl)-1,3,5-triazin-2-yl]-4-(difluoromethyl)pyridin-2-amine] | – | – | IC50 [2]: 49 nM
C[C@H]1COCCN1c1nc(-c2cnc(N)cc2C(F)F)nc(N2C3CCC2COC3)n1 [Compound 10, 5-(4-(3-oxa-8-azabicyclo[3.2.1]octan-8-yl)-6-((S)-3-methylmorpholino)-1,3,5-triazin-2-yl)-4-(difluoromethyl)pyridin-2-amine] | 93 nM | 138 nM | –

SMILES | IC50 ([1]; A2058, 1 h) | IC50 (pPKB S473 in A2058 cells; A2058, 1 h) | further results
CC1(C)COCCN1c1nc(-c2cnc(N)cc2C(F)F)nc(N2CCOC[C@H]2CO)n1 [Compound 68, [(3R)-4-[4-[6-amino-4-(difluoromethyl)-3-pyridyl]-6-(3,3-dimethylmorpholin-4-yl)-1,3,5-triazin-2-yl]morpholin-3-yl]methanol] | 415 nM | 682 nM | –
C[C@@H]1COCCN1c1nc(-c2cnc(N)cc2C(F)F)nc(N2C[C@H]3C[C@@H]2CO3)n1 [Compound 52, 4-(difluoromethyl)-5-[4-[(3R)-3-methylmorpholin-4-yl]-6-[(1R,4R)-2-oxa-5-azabicyclo[2.2.1]heptan-5-yl]-1,3,5-triazin-2-yl]pyridin-2-amine] | 332 nM | 1050 nM | –
CC1(C)COCCN1c1nc(-c2cnc(N)cc2C(F)F)nc(N2CCN(C3CC3)CC2)n1 [Compound 70, 5-[4-(4-cyclopropylpiperazin-1-yl)-6-(3,3-dimethylmorpholin-4-yl)-1,3,5-triazin-2-yl]-4-(difluoromethyl)pyridin-2-amine] | 906 nM | 914 nM | –
C[C@H]1COCCN1c1nc(-c2cnc(N)nc2C(F)F)nc(N2CCOC[C@@H]2C)n1 [Compound 7] | – | – | IC50 [2, 3]: 71 nM
C[C@@H]1COCCN1c1nc(-c2cnc(N)cc2C(F)F)nc(N2C3COCC2C3)n1 [Compound 50, 4-(difluoromethyl)-5-[4-[(3R)-3-methylmorpholin-4-yl]-6-(3-oxa-6-azabicyclo[3.1.1]heptan-6-yl)-1,3,5-triazin-2-yl]pyridin-2-amine] | 407 nM | 1560 nM | –
Nc1cc(C(F)F)c(-c2nc(N3CCOCC3)nc(N3C4COCC3COC4)n2)cn1 [Compound 84, 4-(difluoromethyl)-5-[4-(3,7-dioxa-9-azabicyclo[3.3.1]nonan-9-yl)-6-morpholino-1,3,5-triazin-2-yl]pyridin-2-amine] | 146 nM | 116 nM | –
C[C@@H]1COCCN1c1nc(-c2cnc(N)cc2C(F)F)nc(N2CCOC[C@H]2CO)n1 [Compound 77, [(3R)-4-[4-[6-amino-4-(difluoromethyl)-3-pyridyl]-6-[(3R)-3-methylmorpholin-4-yl]-1,3,5-triazin-2-yl]morpholin-3-yl]methanol] | – | 476 nM | –
C[C@H]1COCCN1c1nc(-c2cnc(N)cc2C(F)F)nc(N2CCNCC2)n1 [Compound 14, (S)-4-(difluoromethyl)-5-(4-(3-methylmorpholino)-6-(piperazin-1-yl)-1,3,5-triazin-2-yl)pyridin-2-amine] | 883 nM | 350 nM | –
Nc1cc(C(F)F)c(-c2nc(N3CCOCC34CCC4)nc(N3CCOCC34CCC4)n2)cn1 [Compound 55, 5-[4,6-bis(8-oxa-5-azaspiro[3.5]nonan-5-yl)-1,3,5-triazin-2-yl]-4-(difluoromethyl)pyridin-2-amine] | 526 nM | 942 nM | –
C[C@H]1COCCN1c1nc(-c2cnc(N)cc2C(F)(F)F)nc(N2CCOCC2)n1 [Compound 8 *, 5-[4-[(3S)-3-methylmorpholin-4-yl]-6-morpholino-1,3,5-triazin-2-yl]-4-(trifluoromethyl)pyridin-2-amine] | – | – | IC50 [1]: 90 nM; IC50 (pPKB S473 in A2058 cells): 196 nM
Nc1cc(C(F)F)c(-c2nc(N3CCOCC3)nc(N3C4CCC3COC4)n2)cn1 [Compound 4, 5-(4-(3-oxa-8-azabicyclo[3.2.1]octan-8-yl)-6-morpholino-1,3,5-triazin-2-yl)-4-(difluoromethyl)pyridin-2-amine] | 135 nM | 178 nM | –
C[C@H]1COCCN1c1cc(-c2cnc(N)nc2C(F)F)nc(N2CCOCC2)n1 [Compound 28, (S)-4′-(difluoromethyl)-6-(3-methylmorpholino)-2-morpholino-[4,5′-bipyrimidin]-2′-amine] | – | – | IC50 [2, 3]: 23 nM
CC[C@@H]1COCCN1c1nc(-c2cnc(N)cc2C(F)F)nc(N2CCOC[C@H]2CC)n1 [Compound 54, 5-[4,6-bis[(3R)-3-ethylmorpholin-4-yl]-1,3,5-triazin-2-yl]-4-(difluoromethyl)pyridin-2-amine] | 209 nM | 354 nM | –
Nc1cc(C(F)F)c(-c2nc(N3C4CCC3COC4)nc(N3C4COCC3COC4)n2)cn1 [Compound 38, 4-(difluoromethyl)-5-[4-(3,7-dioxa-9-azabicyclo[3.3.1]nonan-9-yl)-6-(3-oxa-8-azabicyclo[3.2.1]octan-8-yl)-1,3,5-triazin-2-yl]pyridin-2-amine] | 79 nM | 219 nM | –
Nc1ncc(-c2nc(N3CCOCC3)cc(N3CCOCC3)n2)c(C(F)F)n1 [Compound 19, 4′-(difluoromethyl)-4,6-dimorpholino-[2,5′-bipyrimidin]-2′-amine] | – | – | IC50 [2, 3]: 158 nM
C[C@H]1COCCN1c1nc(-c2cnc(N)nc2C(F)F)nc(N2CCNCC2)n1 [Compound 15, (S)-4-(difluoromethyl)-5-(4-(3-methylmorpholino)-6-(piperazin-1-yl)-1,3,5-triazin-2-yl)pyrimidin-2-amine] | 286 nM | 49 nM | –
